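Five compound concentrations were applied to cells in 96-well plates for 48 hours; endpoints were derived by simple linear interpolation of the resulting dose-response curve. At the GI50, growth is halved.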 Activity calls are given as the source filed them. Rule as the data show it: active = GI50 up to about 1.1 µM and inactive = higher.
How the values were obtained:
Test in all cases: NCI tumour cell line growth inhibition, 48 h
[1] = system: XF498
[2] = system: SNB-78
[3] = system: KM-20L2
[4] = system: DMS-273
[5] = system: M19-MEL
[6] = system: DMS-114
[7] = system: DLD-1
[8] = system: RXF 631
[9] = system: Hs-578T

SMILES: Cc1ccccc1/C=C/C(=O)c1ccccc1
- GI50 [1]: 17.1 µM (inactive)
- GI50 [2]: 19.3 µM (inactive)
- GI50 [3]: 17.7 µM (inactive)
- GI50 [4]: 25.8 µM (inactive)
- GI50 [5]: 25 µM (inactive)
- GI50 [6]: 20.9 µM (inactive)
- GI50 [7]: 22.4 µM (inactive)
- GI50 [8]: 19.4 µM (inactive)

SMILES: CN1CCc2cc3c4cc2C1Cc1ccc(cc1)Oc1cc(ccc1O)CC1c2c(cc(O)c(c2O4)O3)CCN1C (stereo not drawn)
- GI50 [1]: 1.69 µM (inactive)
- GI50 [2]: 5.66 µM (inactive)
- GI50 [3]: 2.9 µM (inactive)
- GI50 [4]: 1.75 µM (inactive)
- GI50 [5]: 1.78 µM (inactive)
- GI50 [6]: 2.05 µM (inactive)
- GI50 [7]: 3.3 µM (inactive)
- GI50 [8]: 1.94 µM (inactive)

SMILES: O=C1CC(c2n[nH]c3ccccc23)C(=O)N1c1ccccc1 (stereo not drawn)
- GI50 [1]: > 100 µM (inactive)
- GI50 [2]: > 100 µM (inactive)
- GI50 [3]: > 100 µM (inactive)
- GI50 [9]: > 100 µM (inactive)
- GI50 [4]: > 100 µM (inactive)
- GI50 [5]: > 100 µM (inactive)
- GI50 [6]: > 100 µM (inactive)
- GI50 [7]: > 100 µM (inactive)
- GI50 [8]: > 100 µM (inactive)

SMILES: COC(=O)Nc1nc2cc(C(=O)c3cccs3)ccc2[nH]1 [NOCODAZOLE]
- GI50 [1]: 0.0314 µM (active)
- GI50 [2]: 0.0322 µM (active)
- GI50 [3]: < 0.0132 µM (active)
- GI50 [4]: 0.0322 µM (active)
- GI50 [5]: 0.195 µM (active)
- GI50 [6]: 0.0424 µM (active)
- GI50 [7]: 0.0344 µM (active)
- GI50 [8]: 0.07 µM (active)

From ChEMBL document CHEMBL1201862, “PubChem BioAssay data set” (2004)
